From patent publication US12622918B2, “Formulations and dosages for administering a compound that inhibits MCL1 protein” (Amgen Inc., priority 2019, dated 2026) come the findings set out here.

For this data set, the system named is OPM2-Luc orthotopic tumors. As to the kind of experiment: OPM2-Luc multiple myeloma orthotopic model, AMG 176 plus carfilzomib. Type of data set: in vivo. The conditions noted are these: carfilzomib 3 mg/kg IV twice weekly. Here is the method:
On day 0, female NSG mice were injected IV with 1×10^6 OPM2-Luc human OPM2-Luc multiple myeloma tumor cells transfected with the firefly luciferase gene.

`CC(C)C[C@H](NC(=O)[C@H](CCc1ccccc1)NC(=O)CN1CCOCC1)C(=O)N[C@@H](Cc1ccccc1)C(=O)N[C@@H](CC(C)C)C(=O)[C@@]1(C)CO1` [carfilzomib]: the “TGI (tumor burden)” value (AMG 176 20 mg/kg orally once daily, day 4 until day 20, female NSG mice) is 82%. Also, the tolerability entry (NSG mice) is given as “Unscheduled deaths”.
